Laboratory results published in US6855802B1, “Mutated peptide compounds, derived from hsp70, useful in cancer immunotherapy” (Institut Gustave Roussy, priority 1998, dated 2005).

Key:
[1] = system: autologous cell line transformed with EBV / 11C2 CTL; test: Peptide recognition assay: chromium release, lysis by 11C2 CTL of peptide-incubated autologous EBV-transformed cells; assay type: cell-based, human; conditions: for EC50: 11C2 CTL, E/T 31/1, 51Cr-labeled autologous EBV-transformed cells incubated 1 hour with peptide, 4 h release, read-out: maximum half-lysis (peptide concentration); for recognition by 11C2 CTL: peptides carrying the HLA-A*0201 binding motif, 18 peptides assayed
Procedure: 2000 cells transformed with EBV and labeled with ^51Cr were incubated for 1 hour in the presence of the indicated hsp70-2 peptides (SEQ ID NOS. 2, 7, 1, and 8) at multiple concentrations. The 11C2 CTL was then added at an effector/target ratio (E/T) of 31/1. Chromium release was measured 4 hours later. The asterisks indicate the mutated amino acids.
The cytotoxicity assays were carried out using the standard 4-hour chromium release assay, as described above, Angevin et al, (1997). In summary, 2×10^3 51Cr-labeled target cells were incubated for 4 hours at 37° C., with the effector cells at various E/T ratios, in a final volume of 200 μl. With regard to lysis inhibition by the mAbs, the target cells were preincubated for two hours in the presence of saturating concentrations of mAb, before adding the effector cells. At the end of the incubation, 40 μl of supernatant were transferred to Lumaplate 96 solid scintillation plates (Packard Instruments, Meriden, Conn.), were dried overnight and counted in a beta-radioactivity counter (Packard Instruments).
In the screening assay, the peptides used were synthesized by “PepSet technology” (Chiron Technologies, Suresnes, France). For the functional assays, the peptides were synthesized on solid phase using F-moc (temporary NH2-terminal protection), and were purified by preparative HPLC. […] The lyophilized peptides were dissolved in […] in water, and conserved at −20° C. The peptides were used in a chromium release assay. 2000 autologous cells transformed with EBV, and labeled with ^51Cr, were incubated for 1 hour at 37° C. on 96-well plates, with diverse concentrations of peptides, before adding 11C2 CTLs.

[2] = system: CD8+ cells from HLA-A2-positive donors; test: Elispot-IFNγ assay with CD8+ cells and peptide-loaded T2 cells; assay type: cell-based, human; conditions: interferon gamma secretion, no in vitro culturing or cytokines
HLA-A2 (HLA-A*0201) = target: T1, HLA-A2 (HLA-A*0201) (human); test: T2 cell HLA-A2 up-regulation, flow cytometry with mAb MA2.1
T1 construct: whole, on cells; also called HLA-A2.1
Procedure: T2 cells were incubated at 26° C. for 16 hours in serum-free medium, with or without peptide at a concentration of 20 μm. Next, the peptides (SEQ ID NOS. 2, 7, 1, and 8) were again added, and the cells were incubated at 37° C. […] The amino acid sequences of the peptides are represented. The mutated amino acid is represented by an asterisk.

Molecule: SLFEGIDFYT [SEQ ID NO: 7, wild-type hsp70-2 decapeptide 286-295, reference compound]
- EC50 [1]: 50 nM
- recognition by 11C2 CTL [1]: recognizes

Molecule: SLFEGIDIY [SEQ ID NO: 1, mutated hsp70-2 nonapeptide, amino acids 286 to 294, isoleucine at position 293]
- EC50 [1]: 500 nM
- recognition by 11C2 CTL [1]: recognized
- induction of human CD8 lymphocytes from healthy HLA-A2+ individuals [2]: possible to induce

Molecule: SLFEGIDIYT [SEQ ID NO: 2, mutated hsp70-2 decapeptide 286-295 carrying the mutant isoleucine residue at position 8]
- EC50 [1]: 0.05 nM
- recognition by 11C2 CTL [1]: recognized
- induction of human CD8 lymphocytes from healthy HLA-A2+ individuals [2]: possible to induce

Molecule: wild-type nonapeptide 286-294: wild-type hsp70-2 nonapeptide, amino acids 286-294 (SLFEGIDFY; listed as Homo sapiens) [reference compound]
- recognition by 11C2 CTL [1]: not

B1: wild-type hsp70-2 nonapeptide 286-294 (peptide)
peptide: SLFEGIDFY
notes: 2, 7, 1 and 8
- binding result (HLA-A2 (HLA-A*0201)): binds

B2: mutated hsp70-2 nonapeptide 286-294 SLFEGIDIY (peptide)
peptide: SLFEGIDIY
notes: Synthetic peptide; isoleucine at hsp70 position 293
- binding result (HLA-A2 (HLA-A*0201)): binds

B3: wild-type hsp70-2 decapeptide 286-295 SLFEGIDFYT (peptide)
peptide: SLFEGIDFYT
notes: Synthetic peptide
- binding result (HLA-A2 (HLA-A*0201)): binds

B4: mutated hsp70-2 decapeptide 286-295 SLFEGIDIYT (peptide)
peptide: SLFEGIDIYT
notes: Synthetic peptide; carries the tumour mutation (isoleucine at hsp70 position 293, position 8 of the peptide)
- binding result (HLA-A2 (HLA-A*0201)): binds
